Experimental data as given in patent US8133849B2, “Herbicidal compounds” (Syngenta Limited, priority 2007, dated 2012).

What was measured:
Experiment in all cases: Example B2 herbicidal action, post-emergence, pots in glasshouse, damage score 0-10
Assay type in all cases: in vivo
Conditions in all cases: application post-emergence, rate 1000 g/ha, evaluated after 13 days
Solanum nigrum = test system: Solanum nigrum
Procedure, shortened: (§1)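 Evaluation took place 13 days post-spray. Treatment used an acetone/water (50:50), 0.5% Tween 20 formulation applied to 8-day-old potted plants, held at 24/16 °C with 14 h light, 65% humidity and twice-daily watering.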

Echinochloa crus-galli = test system: Echinochloa crus-galli
Procedure, shortened: as §1

Amaranthus retroflexus = test system: Amaranthus retroflexus
Procedure, shortened: as §1

Ipomea hederaceae = test system: Ipomea hederaceae
Procedure, shortened: as §1

Setaria faberi = test system: Setaria faberi
Procedure, shortened: as §1

Structure (SMILES)	SOLNI damage score (10=total damage to plant; 0=no damage to plant) (Solanum nigrum)	ECHCG damage score (10=total damage to plant; 0=no damage to plant) (Echinochloa crus-galli)	AMARE damage score (10=total damage to plant; 0=no damage to plant) (Amaranthus retroflexus)	IPOHE damage score (10=total damage to plant; 0=no damage to plant) (Ipomea hederaceae)	SETFA damage score (10=total damage to plant; 0=no damage to plant) (Setaria faberi)
CC(C)C(=O)OC1=C(c2ccc(Cl)cc2Cl)S(=O)(=O)N(CC(F)(F)C(F)F)c2nccnc21 [Compound C122]	9	2	5	6	3
O=S1(=O)C(c2cc(C(F)(F)F)ccc2C(F)(F)F)=C(O)c2nccnc2N1CC(F)F [Compound D22]	10	7	10	10	6
C#CCN1c2nccnc2C(O)=C(c2c(Cl)ccc(Cl)c2C(F)(F)F)S1(=O)=O [Compound D45]	9	6	8	8	6
CCN1c2nccnc2C(OC(=O)C(C)(C)C)=C(c2cccc(Cl)c2Cl)S1(=O)=O [Compound C98]	3	0	0	0	0
O=S1(=O)C(c2cc(C(F)(F)F)ccc2Cl)=C(O)c2nccnc2N1CC(F)F [Compound D16, 3-(2-chloro-5-trifluoromethyl-phenyl)-1-(2,2-difluoro-ethyl)-2,2-dioxo-1,2-dihydro-2-λ-6-thia-1,5,8-triaza-naphthalen-4-ol]	10	5	10	9	2
O=S1(=O)C(c2c(F)ccc(-c3cccc(Cl)c3)c2Cl)=C(O)c2nccnc2N1CC(F)F [Compound D20]	5	1	3	6	1
C#CCN1c2nccnc2C(OC(=O)C(C)C)=C(c2c(Cl)ccc(Cl)c2C(F)(F)F)S1(=O)=O [Compound C84]	10	7	9	8	7
O=S1(=O)C(c2c(Cl)ccc(Cl)c2Cl)=C(O)c2nccnc2N1CC(F)F [Compound D17]	10	9	10	10	9
CC(C)(C)C(=O)OC1=C(c2cccc(Cl)c2Cl)S(=O)(=O)N(CC(F)F)c2nccnc21 [Compound C100]	9	2	4	6	2
Cc1ccc(F)c(C2=C(O)c3nccnc3N(CC(F)F)S2(=O)=O)c1Cl [Compound D12]	9	0	6	5	2
CCN1c2nccnc2C(OS(=O)(=O)C(F)(F)F)=C(c2ccc(Cl)cc2C(F)(F)F)S1(=O)=O [Compound C29, trifluoromethanesulfonic acid-3-(4-chloro-2-trifluoromethylphenyl)-1-ethyl-2,2-dioxo-1,2-dihydro-2-λ-6-thia-1,5,8-triaza-naphthalen-4-yl ester]	5	4	2	5	0
O=S1(=O)C(c2c(C(F)(F)F)cccc2C(F)(F)F)=C(O)c2nccnc2N1CC(F)F [Compound D42]	8	4	7	9	7
CSC(=O)OC1=C(c2ccc(Br)cc2C(F)(F)F)S(=O)(=O)N(CC(F)F)c2nccnc21 [Compound C133]	10	8	10	8	7
O=S1(=O)C(c2ccc(Br)cc2C(F)(F)F)=C(O)c2nccnc2N1CC(F)F [Compound D56]	9	7	10	10	6
COc1ccc(Cl)c(C2=C(OC(=O)C(C)C)c3nccnc3N(CC(F)F)S2(=O)=O)c1F [Compound C143]	10	4	1	8	0
O=C(OC1=C(c2c(Cl)ccc(Cl)c2Cl)S(=O)(=O)N(CC(F)F)c2nccnc21)Sc1ccccc1 [Compound C126]	9	7	9	7	4
CC#CCN1c2nccnc2C(O)=C(c2c(Cl)ccc(Cl)c2C(F)(F)F)S1(=O)=O [Compound D48]	8	0	3	7	0
CCN1c2nccnc2C(OC(=O)C(C)C)=C(c2cc(I)ccc2Cl)S1(=O)=O [Compound C51]	7	1	5	6	0
COc1cccc(F)c1C1=C(OC(=O)C(C)C)c2nccnc2N(CC(F)F)S1(=O)=O [Compound C137]	9	3	7	8	8
CCSC(=O)OC1=C(c2cc(C(F)(F)F)ccc2Cl)S(=O)(=O)N(CC)c2nccnc21 [Compound C87]	10	5	7	9	0
CC(C)C(=O)OC1=C(c2c(Cl)ccc(Cl)c2Cl)S(=O)(=O)N(C)c2nccnc21 [Compound C92]	9	4	6	9	3
